The source of these data is ChEMBL document CHEMBL3994622, “Design and synthesis of new RAF kinase-inhibiting antiproliferative quinoline derivatives. Part 2: Diarylurea derivatives” (Eur J Med Chem, 2017).

Molecules are shown by their SMILES.

Holding throughout (type): functional
In assay [1] the test system is SK-OV-3. The assay can be described thus: Growth inhibition of human SKOV3 cells assessed as cell growth at 0.1 uM incubated for 48 hrs by sulforhodamine B assay relative to control. The conditions noted are these: SK-OV-3, 48 h, read-out: Activity.
Assay [2] concerns SN12C. The assay can be described thus: Growth inhibition of human SN12C cells assessed as cell growth at 100 uM incubated for 48 hrs by sulforhodamine B assay relative to control. The note with it: read-out: Activity. (In general: In SRB staining, fixed cells bind dye roughly in proportion to their protein.)
Assay [3] deals with NCI/ADR-RES. The assay is described as follows: Growth inhibition of human NCI/ADR-RES cells assessed as cell growth at 100 uM incubated for 48 hrs by sulforhodamine B assay relative to control. The note with it: read-out: Activity.
Assay [4] concerns T47D. The assay can be described thus: Growth inhibition of human T47D cells assessed as cell growth at 100 uM incubated for 48 hrs by sulforhodamine B assay relative to control. The conditions noted are these: read-out: Activity.
Assay [5] concerns NCI-H23. The assay is described as follows: Growth inhibition of human NCI-H23 cells assessed as cell growth at 1 uM incubated for 48 hrs by sulforhodamine B assay relative to control. The note with it: NCI-H23, 48 h, read-out: Activity.
In assay [6] the test system is MOLT-4. The assay is described as follows: Growth inhibition of human MOLT4 cells assessed as cell growth at 0.1 uM incubated for 48 hrs by sulforhodamine B assay relative to control. The conditions noted are these: MOLT-4, 48 h, read-out: Activity.
Assay [7] concerns RXF 393. The assay is described as follows: Growth inhibition of human RXF393 cells assessed as cell growth at 1 uM incubated for 48 hrs by sulforhodamine B assay relative to control. The note with it: RXF 393, 48 h, read-out: Activity.
The subject of assay [8] is SF-295. The assay can be described thus: Growth inhibition of human SF295 cells assessed as cell growth at 10 uM incubated for 48 hrs by sulforhodamine B assay relative to control. The conditions noted are these: SF-295, 48 h, read-out: Activity.
Assay [9] concerns T47D. The assay can be described thus: Growth inhibition of human T47D cells assessed as cell growth at 1 uM incubated for 48 hrs by sulforhodamine B assay relative to control. The note with it: read-out: Activity.
For assay [10], the system named is LOX IMVI. The assay is described as follows: Growth inhibition of human LOXIMVI cells assessed as cell growth at 0.01 uM incubated for 48 hrs by sulforhodamine B assay relative to control. The note with it: read-out: Activity.
Assay [11] has as its system HCT-15. The assay is described as follows: Growth inhibition of human HCT15 cells assessed as cell growth at 1 uM incubated for 48 hrs by sulforhodamine B assay relative to control. The conditions noted are these: HCT-15, 48 h, read-out: Activity.
Assay [12] concerns HOP-92. The assay can be described thus: Growth inhibition of human HOP92 cells assessed as cell growth at 0.01 uM incubated for 48 hrs by sulforhodamine B assay relative to control. The conditions noted are these: HOP-92, 48 h, read-out: Activity.
The test system of assay [13] is LOX IMVI. The assay is described as follows: Growth inhibition of human LOXIMVI cells assessed as cell growth at 1 uM incubated for 48 hrs by sulforhodamine B assay relative to control. The note with it: read-out: Activity.
Assay [14] relates to MDA-MB-435. The assay can be described thus: Growth inhibition of human MDA-MB-435 cells assessed as cell growth at 0.01 uM incubated for 48 hrs by sulforhodamine B assay relative to control. The note with it: MDA-MB-435, 48 h, read-out: Activity.
In assay [15] the test system is CAKI-1. The assay can be described thus: Growth inhibition of human Caki1 cells assessed as cell growth at 1 uM incubated for 48 hrs by sulforhodamine B assay relative to control. The conditions noted are these: CAKI-1, 48 h, read-out: Activity.
In assay [16] the test system is SK-MEL-2. The assay can be described thus: Growth inhibition of human SK-MEL-2 cells assessed as cell growth at 100 uM incubated for 48 hrs by sulforhodamine B assay relative to control. The conditions noted are these: SK-MEL-2, 48 h, read-out: Activity.
Assay [17] relates to NCI-H322M. The assay can be described thus: Growth inhibition of human NCI-H322M cells assessed as cell growth at 0.1 uM incubated for 48 hrs by sulforhodamine B assay relative to control. The conditions noted are these: read-out: Activity.
The subject of assay [18] is SW-620. The assay can be described thus: Growth inhibition of human SW620 cells assessed as cell growth at 0.01 uM incubated for 48 hrs by sulforhodamine B assay relative to control. The conditions noted are these: SW-620, 48 h, read-out: Activity.
In assay [19] the test system is HT-29. The assay is described as follows: Growth inhibition of human HT-29 cells assessed as cell growth at 10 uM incubated for 48 hrs by sulforhodamine B assay relative to control. The conditions noted are these: HT-29, 48 h, read-out: Activity.
Assay [20] concerns COLO 205. The assay is described as follows: Growth inhibition of human COLO205 cells assessed as cell growth at 1 uM incubated for 48 hrs by sulforhodamine B assay relative to control. The conditions noted are these: COLO 205, 48 h, read-out: Activity.
In assay [21] the test system is T47D. The assay is described as follows: Growth inhibition of human T47D cells assessed as cell growth at 0.003 uM incubated for 48 hrs by sulforhodamine B assay relative to control. The note with it: read-out: Activity.
Assay [22] has as its system M14. The assay can be described thus: Growth inhibition of human M14 cells assessed as cell growth at 3 uM incubated for 48 hrs by sulforhodamine B assay relative to control. The note with it: M14, 48 h, read-out: Activity.
In assay [23] the test system is CAKI-1. The assay is described as follows: Growth inhibition of human Caki1 cells assessed as cell growth at 3 uM incubated for 48 hrs by sulforhodamine B assay relative to control. The conditions noted are these: CAKI-1, 48 h, read-out: Activity.
In assay [24] the test system is SF-295. The assay is described as follows: Growth inhibition of human SF295 cells assessed as cell growth at 30 uM incubated for 48 hrs by sulforhodamine B assay relative to control. The conditions noted are these: SF-295, 48 h, read-out: Activity.
In assay [25] the test system is HCC 2998. The assay can be described thus: Growth inhibition of human HCC2998 cells assessed as cell growth at 30 uM incubated for 48 hrs by sulforhodamine B assay relative to control. The conditions noted are these: HCC 2998, 48 h, read-out: Activity.
Assay [26] deals with SN12C. The assay can be described thus: Growth inhibition of human SN12C cells assessed as cell growth at 0.03 uM incubated for 48 hrs by sulforhodamine B assay relative to control. The note with it: read-out: Activity.
The test system of assay [27] is SNB-75. The assay can be described thus: Growth inhibition of human SNB75 cells assessed as cell growth at 0.3 uM incubated for 48 hrs by sulforhodamine B assay relative to control. The note with it: SNB-75, 48 h, read-out: Activity.
Assay [28] relates to SK-MEL-28. The assay can be described thus: Growth inhibition of human SK-MEL-28 cells assessed as cell growth at 0.03 uM incubated for 48 hrs by sulforhodamine B assay relative to control. The note with it: SK-MEL-28, 48 h, read-out: Activity.
Assay [29] relates to ACHN. The assay is described as follows: Growth inhibition of human ACHN cells assessed as cell growth at 30 uM incubated for 48 hrs by sulforhodamine B assay relative to control. The conditions noted are these: read-out: Activity.
The subject of assay [30] is HCT-15. The assay is described as follows: Growth inhibition of human HCT15 cells assessed as cell growth at 0.3 uM incubated for 48 hrs by sulforhodamine B assay relative to control. The note with it: HCT-15, 48 h, read-out: Activity.
In assay [31] the test system is 786-0. The assay is described as follows: Growth inhibition of human 786-0 cells assessed as cell growth at 30 uM incubated for 48 hrs by sulforhodamine B assay relative to control. The conditions noted are these: 786-0, 48 h, read-out: Activity.
In assay [32] the test system is DU-145. The assay is described as follows: Growth inhibition of human DU145 cells assessed as cell growth at 0.003 uM incubated for 48 hrs by sulforhodamine B assay relative to control. The conditions noted are these: DU-145, 48 h, read-out: Activity.
In assay [33] the test system is NCI-H226. The assay is described as follows: Growth inhibition of human NCI-H226 cells assessed as cell growth at 0.03 uM incubated for 48 hrs by sulforhodamine B assay relative to control. The conditions noted are these: NCI-H226, 48 h, read-out: Activity.
The subject of assay [34] is COLO 205. The assay can be described thus: Growth inhibition of human COLO205 cells assessed as cell growth at 0.03 uM incubated for 48 hrs by sulforhodamine B assay relative to control. The conditions noted are these: COLO 205, 48 h, read-out: Activity.
Assay [35] deals with M14. The assay can be described thus: Growth inhibition of human M14 cells assessed as cell growth at 30 uM incubated for 48 hrs by sulforhodamine B assay relative to control. The conditions noted are these: M14, 48 h, read-out: Activity.

For `COc1cc2cc(Oc3ccc(NC(=O)Nc4ccc(Cl)c(Cl)c4)cc3)c(C)nc2cc1OC`, the growth at 0.1 µM was found to be 107% in assay [1], 109% in [6] and 103% in assay [17]. For the same compound, the growth at 100 µM in assay [2] is -41%; in assay [3], -46%; in assay [4], -54%; in assay [16] it was -100%. Also, the growth at 1 µM in assay [5] turned out to be 89%; in assay [7], 104%; in [9] it was 88%; in [11] it was 88%; in [13] it was 85%; in assay [15] it was 83%. Further, in assay [20], the growth at 1 µM stood at 109%. Besides, the growth at 10 µM in [8] was -22%; in [19] it was -49%. The growth at 0.01 µM in [10] is 95%; in assay [12] it was 95%; in assay [14] it was 94%; in [18], 101%.
As for `COc1cc2cc(Oc3ccc(NC(=O)Nc4ccc(Cl)c(C(F)(F)F)c4)cc3)c(C)nc2cc1OC`, the growth at 0.003 µM in assay [21] turned out to be 94%; in assay [32], 100%. The growth at 3 µM in assay [22] was 18%; in [23] it was -11%. In addition, the growth at 30 µM in [24] was -59%; in assay [25] it was -98%; in assay [29], -85%; in assay [31], -71%; in assay [35] it was -70%. Besides, the growth at 0.03 µM came out at 95% in [26], 98% in [28], 98% in assay [33] and 94% in assay [34]. Moreover, the growth at 0.3 µM in assay [27] stood at 90%; in assay [30], 91%.
Take `COc1cc2cc(Oc3ccc(NC(=O)Nc4cc(C(F)(F)F)cc(C(F)(F)F)c4)cc3)c(C)nc2cc1OC`: the growth at 0.1 µM in assay [1] worked out at 104%; in assay [6], 104%; in [17], 90%. Besides, the growth at 100 µM is -74% in [2], -45% in [3], -82% in [4] and -69% in assay [16]. Besides, the growth at 1 µM was 39% in assay [5]; 93% in assay [7]; 64% in assay [9]; 41% in assay [11]; 75% in assay [13]; 63% in [15]. Besides, in [20], the growth at 1 µM came to 92%. The results for the growth at 10 µM in [8] and in [19] were -76% and -64%, respectively. Besides, the growth at 0.01 µM in [10] was found to be 97%; in assay [12] it was 93%; in assay [14] it was 94%; in [18] it was 100%.
For the compound `Cc1nc2cc(O)c(O)cc2cc1Oc1ccc(NC(=O)Nc2ccc(Cl)c(Cl)c2)cc1`, the growth at 0.003 µM in [21] turned out to be 102%; in assay [32], 105%. Further, the results for the growth at 3 µM in [22] and in assay [23] were 86% and 62%, respectively. For the same compound, the growth at 30 µM in assay [24] was 9%; in assay [25], -51%; in [29] it was -18%; in assay [31], -31%; in assay [35], -51%. Moreover, the growth at 0.03 µM was 102% in [26], 87% in [28], 103% in assay [33] and 108% in assay [34]. Further, the growth at 0.3 µM in assay [27] came to 75%; in assay [30] it was 101%.
